# From patent US20100048545A1, “Compounds and Compositions for Use in the Prevention and Treatment of Disorders of Fat Metabolism and Obesity” (INNODIA INC., priority 2006, published 2010)
# Read-outs that look alike come from different tables or passages of the source.
# Tests used:
# [1] = test system: normal Wistar rats fed a high fat, high sucrose diet (HFHS); assay: Prevention of weight gain in rat model of diet-induced obesity (HFHS diet), 28 days; details: 100 mg/kg twice daily oral; for weight gain: HFHS diet
# Source text: The aim of this study was to evaluate the effect of chronic administration of 4-hydroxyisoleucine (4-OH, Compound 14a) on food consumption, tissue weight, and body weight gain of normal Wistar rats fed a high fat, high sucrose diet (HFHS).
# The animals were acclimated for 1 week and fed standard chow prior to the commencement of treatment, then for the 28 days of the treatment the animals were fed a high fat, high sucrose diet (HFHS). A total of 30 animals were used in the study. The animals were distributed into 3 groups each composed of 10 animals: 1 group fed HFHS with treatment, 1 untreated control group fed standard chow, and 1 untreated group fed HFHS. Animals were housed separately and food consumption was monitored daily.
# For the four weeks of treatment, the test compounds were dissolved in reverse osmosis water. 4-hydroxyisoleucine (4-OH) was aliquoted and kept at 4° C. Treated animals received twice daily oral administration of 4-OH at 100 mg/kg per dose. Control animals received water twice daily.
# AMPK-ACC = assay: Phosphorylation level of AMPK-ACC in the hypothalamus of HFHS fed rats (Western blot, anti-pACC); assay type: in vivo; details: 100 mg/kg BID for 2 days, overnight fasted, dosed one hour before terminal procedure, vs control
# Source text: The AMPK pathway is known to regulate food intake in the hypothalamus. In low energy state as in a food deprivation situation, AMPK phosphorylates and in this way inactivates acetyl CoA carboxylase (ACC). Phosphorylation of ACC thus reduces its ability to catalyse the production of malonyl-CoA which is thought to be implicated in the […] of food consumption (.Hu, Z., Dai, Y., Prentki, M., Chohnan, S, and Lane, D. (2005) J. Biol. Chem. 280: 39681-39683).
# To investigate whether 4-OH can alter activity of the AMPK/ACC in the hypothalamus, rats were treated BID with 100 mg/kg of 4-OH or water (control group) for 2 days. Each group was composed of four animals. All rats (controls and 4-OH treated) were fasted overnight before experimentation. On day 29, rats from each respective group were treated one hour before the terminal procedure with their appropriate solution (water for control and 4-OH for chronically 4-OH treated rats). After decapitation, the hypothalamus were isolated and snap frozen in liquid nitrogen. The hypothalamus was then powdered with liquid nitrogen and then solubilized in lysis buffer. Western blot was performed on the hypothalamus extract after resolution of proteins onto a 7.5% polyacrylamide SDS gel and transfer onto a nitrocellulose membrane. […]
# Sprague-Dawley rats = assay: 13-week oral toxicity study: body weight and lipid profiles of SD rats fed regular chow; assay type: in vivo
# Procedure: Sprague-Dawley rats were received at 7-12 weeks of age (225-300 g). […] The control group received vehicle (water) alone. Body weights were recorded once prior to group assignment, and approximately one week prior to initiation of treatment. Then, body weights were recorded for all animals up to 1 day prior to dosing and weekly thereafter during the treatment period. At the end of the treatment period, a blood sample was withdrawn to measure plasma triglyceride and cholesterol levels.
# [2] = test system: C57BL/6 mice fed a high fat diet; assay: Analogs and isomers of 4-hydroxyisoleucine on body weight gain in C57BL/6 mice fed a high fat diet, 3 days; assay type: in vivo
# Procedure: C57BL/6 mice were received at 6-7 weeks of age and fed a standard commercial chow for 1 week (acclimation period). The animals were randomized based on their body weight values, into control and treatment groups (n=6). Then, animals were shifted to a high fat diet (60% of calories from fat) and treated twice daily by oral gavage with 4-hydroxyisoleucine (4-OH, compound 14a) or different analogs and isomers of 4-OH at the dose of 100 mg per kg of body weight for 3 days. The control group (Control HFD) received vehicle (water) alone and a group was kept under standard chow (Control Lean). Body weight of the mice was recorded daily. Two different experiments were run and the effect on body weight gain of selected analogs and isomers according to the invention is presented in FIG. 30A (Experiment 1) and FIG. 30B (Experiment 2).
# DIO-mice = assay type: in vivo
# Source text: The objective of this study was to evaluate the effect of chronic administration of 4-hydroxyisoleucine (4-OH, compound 14a) on food consumption and body weight gain of DIO-mice. Both parameters were monitored for 1 week prior to the commencement of treatment, then for the 77 days of treatment and for an additional 12 days post-treatment.
# C57BL/6 mice were received at 7-8 weeks of age and fed a high fat diet (60% of calories from fat) for several weeks. A total of 32 animals were used in the study. The animals were distributed into 4 groups (3 treated, 1 control group, all on high fat diet). Each group was composed of 8 animals. The mice were randomized according to body weight and basal glycemia values following a 5±0.5 hour fasting period.
# The test agent was dissolved in reverse osmosis water. 4-Hydroxyisoleucine was aliquoted and kept at 4° C. Control animals received reverse osmosis water twice daily (group 1). Mice from groups 2, 3 and 4 were treated twice daily with 4-hydroxyisoleucine (4-OH, compound 14a) at 100, 50, and 25 mg/kg, respectively. All groups were treated by oral gavage. Treatment commenced on Day 0 and ended on Day 77. Food consumption was measured daily and averaged on a weekly basis beginning one week before the start of treatment as shown in FIG. 16B. Similarly, food consumption was monitored during the treatment period and for 12 days after treatment was stopped as shown in FIGS. 16A and 16B.
# [3] = 100, 200, 400 mg/kg/day, Day 92
compound,measurement,setting,value
"C[C@@H]([C@H](C)O)[C@H](N)C(=O)O [Compound 14a, (2S,3R,4S)-4-Hydroxyisoleucine]",epididymal and peri-renal adipose tissue,[1],reduction of epididymal and peri-renal adipose tissue
same,food consumption,[1],reduction in food consumption
same,"muscle, brown fat, and organ weight",[1],not affected
same,tolerability of treatment,[1],well tolerated
same,weight gain,[1],prevention of weight gain
same,weight gain,[1]; listed as 4-OH,Moderation of weight gain was observed
same,level of phosphorylated ACC in hypothalamus,AMPK-ACC,even more reduced
same,"average body weight at end of treatment, male rats","Sprague-Dawley rats; 200 mg/kg/day, 13 weeks",527 g
same,"average body weight at end of treatment, male rats","Sprague-Dawley rats; 400 mg/kg/day, 13 weeks",520 g
same,"reduction of triglycerides, significance","Sprague-Dawley rats; 400 mg/kg/day, male rats",statistically significant
same,"cholesterol levels, male rats",Sprague-Dawley rats; [3],reduced in a dose-dependant manner
same,"triglyceride levels, male rats",Sprague-Dawley rats; [3],reduced in a dose-dependant manner
same,"body weight, male rats","Sprague-Dawley rats; 200 and 400 mg/kg/day once daily oral, 13 weeks, vs control",clear reduction of body weight compared to control rats
same,"reduction of cholesterol, significance","Sprague-Dawley rats; 200 and 400 mg/kg/day, male rats",statistically significant
same,body weight gain induced by the high fat diet,[2]; 100 mg/kg twice daily oral gavage,reduced body weight gain induced by the high fat diet
same,body weight compared to pre-treatment values,"[2]; 100 mg/kg twice daily, one experiment (FIG. 30B)",reduced body weight of the mice as compared to pre-treatment values
same,body weight gain,"DIO-mice; 100 mg/kg twice daily, Day 28 to Day 84",significantly effective at controlling body weight gain
same,body weight gain,"DIO-mice; 100 mg/kg twice daily, Day 28 to Day 84, listed as 4-OH",sustained and highly significant
same,food consumption,"DIO-mice; 100 mg/kg twice daily, first week of treatment",slight decrease in food consumption
same,body weight gain and food consumption after treatment was stopped,"DIO-mice; 100 mg/kg, first week following cessation of treatment",increase in the first week following cessation of treatment
same,tolerability of treatment,"DIO-mice; 25, 50 and 100 mg/kg twice daily, oral gavage, 77 days",well-tolerated
same,body weight gain,"DIO-mice; 50 and 100 mg/kg twice daily, first three weeks of treatment",moderation of weight gain was observed
